Literature values in Sander's compilation of Henry's law constants (doi:10.1016/j.chemosphere.2007.04.088).

Assay: Henry solubility constant Hcp at 298.15 K (mol/(m3 Pa))
Conditions: reference: Warneck (2007); cited value
For ClCC(Cl)(Cl)Cl [1,1,1,2-tetrachloroethane], the “Henry solubility constant Hcp” value is listed as 0.0042.
For CC(Cl)(Cl)Cl [1,1,1-trichloroethane], the “Henry solubility constant Hcp” value is listed as 0.0006.
For ClC(Cl)C(Cl)Cl [1,1,2,2-tetrachloroethane], the “Henry solubility constant Hcp” value is listed as 0.024.
In the case of ClCC(Cl)Cl [1,1,2-trichloroethane], the “Henry solubility constant Hcp” value is given as 0.011.
For C=C(Cl)Cl [1,1-dichloroethene], the “Henry solubility constant Hcp” value is listed as 0.00037.
In the case of CCCl [chloroethane], the “Henry solubility constant Hcp” value is given as 0.00083.
For C=CCl [chloroethene], the “Henry solubility constant Hcp” value is given as 0.00038.
For ClCCl [dichloromethane], the “Henry solubility constant Hcp” value is listed as 0.0039.
For ClC(Cl)=C(Cl)Cl [tetrachloroethene], the “Henry solubility constant Hcp” value is listed as 0.00062.
In the case of ClC(Cl)(Cl)Cl [tetrachloromethane], the “Henry solubility constant Hcp” value is listed as 0.00036.
For ClC=C(Cl)Cl [trichloroethene], the “Henry solubility constant Hcp” value is listed as 0.0011.
